Series [1] can be described thus: RP, Waters ACQUITY UPLC BEH C18, 100 × 1 mm, 1.7 µm, 50 °C, 0.3 mL/min, estimated dead time 0.17 min; A: water + 0.1% formic acid + 20 mM ammonium formate; B: methanol + 0.1% formic acid + 20 mM ammonium formate; gradient (min/%B) 0/0 15/100 21/100 22/0 30/0. The note with it: stereoisomer not certain.
Series [2] can be described thus: RP, Waters ACQUITY UPLC BEH C18, 100 × 1 mm, 1.7 µm, 50 °C, 0.3 mL/min, estimated dead time 0.17 min; A: water + 10 mM ammonium bicarbonate; B: 10% water + 90% methanol + 10 mM ammonium bicarbonate; gradient (min/%B) 0/0 15/100 21/100 22/0 30/0. The note with it: stereoisomer not certain.

With `Cc1cccc(Cl)c1NC(=O)N(C)C` [3-(2-CHLORO-6-METHYLPHENYL)-1,1-DIMETHYLUREA], the values for the LC retention time in series [1] and in series [2] were 10 min and 10.1 min, respectively.

For `CC(=O)OC1CC2(C)C3(CO3)C1OC1C=C(C)C(=O)C(O)C12CO` (configuration not stated) [3-Acetyl-Deoxynivalenol], the values for the LC retention time in series [1] and in series [2] were 9.62 min and 9.74 min, respectively.

As to `CN(C)C(=O)NC1CCCCC1` [3-Cyclohexyl-1,1-dimethylurea], the figures for the LC retention time in series [1] and in series [2] were 10.9 min and 11.1 min, respectively.

On to `Oc1cc(-c2ccc(Cl)cc2)ccc1Cl` [3-Hydroxy-4,4'-dichlorobiphenyl], for which the LC retention time in series [1] is 15.9 min; in series [2], 16 min.

For the compound `CNC(=O)Oc1cccc2c1OC(C)(C)C2O` (configuration not stated) [3-Hydroxycarbofuran], the results for the LC retention time in series [1] and in series [2] were 9.35 min and 9.47 min, respectively.

As to `CCCCNC(=O)OCC#CI` [3-Iodopropynyl butylcarbamate], the LC retention time in series [1] is 12.9 min; in series [2] it was 13.2 min.

For `CC(=O)Nc1ccc(N)cc1` [4'-Aminoacetanilide], the LC retention time in series [1] is 8.1 min; in series [2] it was 4.75 min.

For `Nc1ccc(Cc2ccc(N)cc2)cc1` [4,4'-Methylenedianiline], the LC retention time in series [1] is 5.44 min; in series [2], 10.7 min.

For the compound `CC12CCC3C(CCC4C(O)C(=O)C=CC43C)C1CCC2=O` (configuration not stated) [4- Hydroxyandrostenedione], the results for the LC retention time in series [1] and in series [2] were 11.7 min and 11.9 min, respectively.

Consider `CN(C)c1ccncc1` [4-(Dimethylamino)pyridine], for which the LC retention time in series [1] is 4.07 min; in series [2], 7.04 min.

Turning to `CN(C)S(=O)(=O)c1ccc(N)cc1` [4-Amino-N,N-dimethylbenzenesulfonamide], the LC retention time is 7.95 min in series [1] and 8.01 min in series [2].

As to `NC(=O)c1ccc(N)cc1` [4-Aminobenzamide], the LC retention time in series [1] is 2.09 min; in series [2], 2.63 min.

With `Nc1ccc(Nc2ccccc2)cc1` [4-Aminodiphenylamine], the LC retention time was 8.71 min in series [1] and 11.5 min in series [2].

`CC12CCC3C(CCC4=CC(=O)CCC43C)C1CCC2=O` (configuration not stated) [4-Androstene-3,17-dione]: the LC retention time was 14 min in series [1] and 14.2 min in series [2].

With `COc1cc(Cl)c(OC)cc1N` [4-Chloro-2,5-dimethoxyaniline], the LC retention time is 10.4 min in series [1] and 11.2 min in series [2].

Turning to `Cc1c(C=O)c(=O)n(-c2ccccc2)n1C` [4-Formyl-antipyrine], the values for the LC retention time in series [1] and in series [2] were 7.75 min and 7.74 min, respectively.

`Oc1c(Cl)cc(-c2ccc(Cl)cc2)cc1Cl` [4-Hydroxy-3,4',5-trichlorobiphenyl]: the values for the LC retention time in series [1] and in series [2] were 16.9 min and 15.2 min, respectively.

For `O=C(O)Cc1ccccc1Nc1c(Cl)cc(O)cc1Cl` [4-Hydroxy-Diclofenac], the LC retention time was 13.7 min in series [1] and 10.7 min in series [2].

For `CCC(=C(c1ccc(O)cc1)c1ccc(OCCN(C)C)cc1)c1ccccc1` [4-Hydroxytamoxifen], the values for the LC retention time in series [1] and in series [2] were 14.3 min and 17 min, respectively.

As to `Cc1ccc(C=C2C(=O)C3(C)CCC2C3(C)C)cc1` (configuration not stated) [4-Methylbenzylidene camphor], the LC retention time in series [1] is 17.1 min; in series [2], 17.4 min.

Take `Oc1ccc(C(F)(F)F)cc1` [4-Trifluoromethylphenol]: the LC retention time is 12.8 min in series [1] and 12.6 min in series [2].

Take `CC(=O)Nc1cc(Cl)ccc1C` [5'-CHLORO-2'-METHYLACETANILIDE]: the LC retention time in series [1] was 11 min; in series [2], 11.2 min.

Regarding `CCc1cccc(C)c1N` [6-Ethyl-2-toluidine], the results for the LC retention time in series [1] and in series [2] were 10.8 min and 12.7 min, respectively.

On to `CCNc1ccc2c(C)cc(=O)oc2c1` [7-(Ethylamino)-4-methylcoumarin], for which the LC retention time in series [1] was 12.2 min; in series [2], 12.5 min.

As for `CC(=O)OC1CCN2CC=C(COC(=O)C(O)(C(C)C)C(C)O)C12` (configuration not stated) [7-Acetyllycopsamine], the LC retention time in series [1] is 8.13 min; in series [2], 11.8 min.

Regarding `Cc1cc(=O)oc2cc(N)ccc12` [7-Amino-4-methylcoumarin], the LC retention time in series [1] is 9.29 min; in series [2] it was 9.4 min.

For the compound `CCN(CC)c1ccc2c(C)cc(=O)oc2c1` [7-Diethylamino-4-methylcoumarin], the LC retention time in series [1] was 14.4 min; in series [2], 14.7 min.

As to `CN(Cc1nc2c(N)nc(N)nc2[nH]c1=O)c1ccc(C(=O)NC(CCC(=O)O)C(=O)O)cc1` (configuration not stated) [7-Hydroxymethotrexat], the LC retention time in series [1] is 8.94 min; in series [2], 6.65 min.

On to `CC(CCC(=O)O)C1CCC2C3C(=O)CC4CC(O)CCC4(C)C3CCC12C` (configuration not stated) [7-Oxolithocholic acid], for which the values for the LC retention time in series [1] and in series [2] were 19.2 min and 14.3 min, respectively.

Take `NC(=O)N1c2ccccc2CC(O)c2ccccc21` (configuration not stated) [10,11-Dihydro-10-hydroxycarbamazepine]: the LC retention time is 10.7 min in series [1] and 10.9 min in series [2].

For the compound `CC(=O)OC12COC1CC(O)C1(C)C(=O)C(O)C3=C(C)C(O)CC(O)(C(OC(=O)c4ccccc4)C21)C3(C)C` (configuration not stated) [10-Deacetylbaccatin III], the LC retention time in series [1] was 11.7 min; in series [2], 12 min.

Take `CC(=O)C1(O)CCC2C3CCC4=CC(=O)CCC4(C)C3CCC21C` (stereo not drawn) [17alpha-Hydroxyprogesterone]: the LC retention time is 14.5 min in series [1] and 14.8 min in series [2].

As to `CC12CCC(=O)C=C1CCC1C2CCC2(C)C1CCC2(C)O` (stereo not drawn) [17alpha-Methyltestosterone], the LC retention time in series [1] was 14.7 min; in series [2], 15 min.

With `CCN1CCCC1CNC(=O)c1cc(S(N)(=O)=O)ccc1OC` (stereo not drawn) [(s)-(-)-Sulpiride], the LC retention time in series [1] is 6.03 min; in series [2] it was 10.3 min.

`CC(=O)N(C)N(C(=O)C(=O)N(C)C)c1ccccc1` [AMDOPH]: the values for the LC retention time in series [1] and in series [2] were 9.42 min and 9.52 min, respectively.

Regarding `CCOCN(C(=O)CCl)c1c(C)cccc1CC` [Acetochlor], the LC retention time in series [1] is 15 min; in series [2] it was 15.3 min.

For `CSC(=O)c1cccc2nnsc12` [Acibenzolar-S-methyl], the LC retention time in series [1] is 13.7 min; in series [2] it was 14 min.

Turning to `CCN1CC2(COC)C(O)CC(OC)C34C5CC6(O)C(OC)C(O)C(OC(C)=O)(C5C6OC(=O)c5ccccc5)C(C(OC)C23)C14` (configuration not stated) [Aconitin], the LC retention time in series [1] was 12.1 min; in series [2], 15.7 min.

For the compound `c1ccc2nc3ccccc3cc2c1` [Acridin], the results for the LC retention time in series [1] and in series [2] were 8.84 min and 14.6 min, respectively.

Turning to `Nc1ncnc2nc[nH]c12` [Adenine], the LC retention time in series [1] was 5.28 min; in series [2], 2.55 min.

`COC(=O)C1=COC(C)C2CN3CCc4c([nH]c5ccccc45)C3CC12` (configuration not stated) [Ajmalicine]: the LC retention time in series [1] was 10.1 min; in series [2] it was 15.5 min.

These data come from the RepoRT retention time repository (doi:10.1021/acs.analchem.1c00972).
